Laboratory results reported in patent publication US20260250318A1, “COMPOSITIONS AND METHODS FOR CROSSING THE BLOOD BRAIN BARRIER” (VOYAGER THERAPEUTICS, INC., priority 2022, published 2026).

Key:
brain = test: Matured TTM-001 and TTM-002 variants, NGS enrichment in mouse brain; assay type: in vivo, mice; conditions: relative to AAV9 control
[1] = test system: brains, heart, liver, muscle, and DRG of the NHPs; test: Maturation of TTM-001 and TTM-002 capsids, NGS enrichment in NHP tissues; assay type: in vivo; conditions: relative to AAV9 control
How it was run: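 Variants carry mutations within and flanking the loop IV peptide insert: positions 450–466 were triplet-randomized, while positions 449–466 received low-frequency point mutations. The combined pool went into two NHPs, and each peptide was scored by NGS enrichment ratio against AAV9.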

[2] = NGS fold-enrichment, mouse brain
[3] = NGS fold-enrichment of RNA, NHP brain
[4] = NGS fold-enrichment, NHP liver DNA
[5] = NGS fold-enrichment, NHP liver RNA
[6] = NGS fold-enrichment, NHP muscle
[7] = NGS fold-enrichment, brain of mice
[8] = NGS fold-enrichment, DRG of NHPs
[9] = NGS fold-enrichment, RNA, brain of NHPs
[10] = NGS fold-enrichment, heart of NHPs
[11] = NGS fold-enrichment, liver DNA of NHPs
[12] = NGS fold-enrichment, liver RNA of NHPs
[13] = NGS fold-enrichment, muscle of NHPs
[14] = NGS fold-enrichment of matured AAV capsid variants, NHP brain, RNA

Sequence	Fold Enrichment relative to AAV9, Brain (Mouse) (brain; [2]) [fold]	Fold Enrichment relative to AAV9, Brain (NHP) [1, 3] [fold]	Fold Enrichment relative to AAV9, DRG (NHP) ([1]; NGS fold-enrichment, NHP DRG) [fold]	Fold Enrichment relative to AAV9, Heart (NHP) ([1]; NGS fold-enrichment, NHP heart) [fold]	Fold Enrichment relative to AAV9, Liver DNA (NHP) [1, 4] [fold]	Fold Enrichment relative to AAV9, Liver RNA (NHP) [1, 5] [fold]	Fold Enrichment relative to AAV9, Muscle (NHP) [1, 6] [fold]	Fold Enrichment relative to AAV9, Brain (Mouse) (brain; [7]) [fold]	Fold Enrichment relative to AAV9, DRG (NHP) [1, 8] [fold]	Fold Enrichment relative to AAV9, Brain (NHP) [1, 9] [fold]	Fold Enrichment relative to AAV9, Heart (NHP) [1, 10] [fold]	Fold Enrichment relative to AAV9, Liver DNA (NHP) [1, 11] [fold]	Fold Enrichment relative to AAV9, Liver RNA (NHP) [1, 12] [fold]	Fold Enrichment relative to AAV9, Muscle (NHP) [1, 13] [fold]	other results
KTINAHDSPHKIGQNHQT	5.074	106.832	0.000	0.121	0.231	0.000	0.000								
KTINGCGSPHASGQNQQT	1.857	132.540	0.000	0.121	0.059	0.000	0.042								
KTINGGGSPHSKALNQQN	69.884	77.822	0.000	0.131	0.274	0.000	0.000	69.884	0.000	77.822	0.131	0.274	0.000	0.000	
KTINGGGSPHSKAQDKQT								50.764	0.000	59.322	0.000	0.093	0.000	0.000	
KTINGGGSPHSKAQNPPT								64.045	0.000	63.041	0.082	0.057	0.000	0.000	
KTINGGGSPHSKAQNPQA															Fold Enrichment relative to AAV9, Brain (Mouse) (brain; mouse brain): 102.792 fold; Fold Enrichment relative to AAV9, Brain (NHP) [1, 14]: 51.574 fold; Fold Enrichment relative to AAV9, DRG (NHP) ([1]; NHP DRG): 0.000 fold; Fold Enrichment relative to AAV9, Heart (NHP) ([1]; NHP heart): 0.000 fold; Fold Enrichment relative to AAV9, Liver DNA (NHP) ([1]; NHP liver, DNA): 0.000 fold; Fold Enrichment relative to AAV9, Liver RNA (NHP) ([1]; NHP liver, RNA): 0.192 fold; Fold Enrichment relative to AAV9, Muscle (NHP) ([1]; NHP muscle): 0.000 fold
KTINGGGSPHSKAQNQLI	78.383	83.881	0.000	0.000	0.387	0.046	0.000	78.383	0.000	83.881	0.000	0.387	0.046	0.000	
KTINGGGSPHSKAQNQMT															Fold Enrichment relative to AAV9, Brain (Mouse) (brain; mouse brain): 73.177 fold; Fold Enrichment relative to AAV9, Brain (NHP) [1, 14]: 55.778 fold; Fold Enrichment relative to AAV9, DRG (NHP) ([1]; NHP DRG): 0.000 fold; Fold Enrichment relative to AAV9, Heart (NHP) ([1]; NHP heart): 0.000 fold; Fold Enrichment relative to AAV9, Liver DNA (NHP) ([1]; NHP liver, DNA): 0.012 fold; Fold Enrichment relative to AAV9, Liver RNA (NHP) ([1]; NHP liver, RNA): 0.866 fold; Fold Enrichment relative to AAV9, Muscle (NHP) ([1]; NHP muscle): 0.000 fold
KTINGGGSPHSKAQNQQC	53.840	89.301	0.219	0.000	0.319	0.287	0.000	53.840	0.219	89.301	0.000	0.319	0.287	0.000	
KTINGGGSPHSKAQRQQT															Fold Enrichment relative to AAV9, Brain (Mouse) (brain; mouse brain): 147.942 fold; Fold Enrichment relative to AAV9, Brain (NHP) [1, 14]: 50.998 fold; Fold Enrichment relative to AAV9, DRG (NHP) ([1]; NHP DRG): 0.000 fold; Fold Enrichment relative to AAV9, Heart (NHP) ([1]; NHP heart): 0.041 fold; Fold Enrichment relative to AAV9, Liver DNA (NHP) ([1]; NHP liver, DNA): 0.142 fold; Fold Enrichment relative to AAV9, Liver RNA (NHP) ([1]; NHP liver, RNA): 0.991 fold; Fold Enrichment relative to AAV9, Muscle (NHP) ([1]; NHP muscle): 0.000 fold
KTINGGGSPHSKAQSQQI								67.651	0.000	74.264	0.000	0.235	0.000	0.000	
KTINGGGSPHSKAQTQQI	54.199	92.345	0.000	0.000	0.023	0.000	0.000	54.199	0.000	92.345	0.000	0.023	0.000	0.000	
KTINGGGSPHSKAQYQHT															Fold Enrichment relative to AAV9, Brain (Mouse) (brain; mouse brain): 82.256 fold; Fold Enrichment relative to AAV9, Brain (NHP) [1, 14]: 54.188 fold; Fold Enrichment relative to AAV9, DRG (NHP) ([1]; NHP DRG): 0.000 fold; Fold Enrichment relative to AAV9, Heart (NHP) ([1]; NHP heart): 0.000 fold; Fold Enrichment relative to AAV9, Liver DNA (NHP) ([1]; NHP liver, DNA): 0.223 fold; Fold Enrichment relative to AAV9, Liver RNA (NHP) ([1]; NHP liver, RNA): 0.000 fold; Fold Enrichment relative to AAV9, Muscle (NHP) ([1]; NHP muscle): 0.000 fold
KTINGGGSPHSKSQNQHT								100.748	0.000	67.773	0.057	0.220	0.000	0.000	
KTINGGGSPHSKSQNQLT	126.986	82.231	0.000	0.070	0.498	0.000	0.000	126.986	0.000	82.231	0.070	0.498	0.000	0.000	
KTINGGGSPHSKSQNRQT															Fold Enrichment relative to AAV9, Brain (Mouse) (brain; mouse brain): 149.370 fold; Fold Enrichment relative to AAV9, Brain (NHP) [1, 14]: 51.017 fold; Fold Enrichment relative to AAV9, DRG (NHP) ([1]; NHP DRG): 0.000 fold; Fold Enrichment relative to AAV9, Heart (NHP) ([1]; NHP heart): 0.000 fold; Fold Enrichment relative to AAV9, Liver DNA (NHP) ([1]; NHP liver, DNA): 0.421 fold; Fold Enrichment relative to AAV9, Liver RNA (NHP) ([1]; NHP liver, RNA): 0.000 fold; Fold Enrichment relative to AAV9, Muscle (NHP) ([1]; NHP muscle): 0.000 fold
KTINGHDSPHKIGLDQQT	5.469	165.627	0.000	0.000	0.000	1.942	0.000								
KTINGHDSPHKIGQNQHA	7.578	77.321	0.000	18.836	0.132	0.220	0.028								
KTINGHDSPHKSAQNYQT	19.443	130.375	0.000	0.124	0.123	0.097	0.000								
